Where “and” joins values, the source holds several entries; their conditions need not be identical. Equal entries are not always repeated.
Experiments:
[1] = test system: primary CD4+ T-lymphocytes; experiment: Cellular cytotoxicity (LDH assay and CellTiter Glo assay); assay type: cell-based, human; details: even at high concentration (20 μM), 72 h
Procedure: (§1) This experiment examined the cellular cytotoxicity of DEB10-1143 alone and DEB10-1143+ART on the human CD4+ T cell line JLat 10.6. DEB10-1143 was tested as well on human primary CD4+ T lymphocytes. Drug titration and kinetic studies were conducted.
(§2) Method: Cells (100,000 cells/100 μL) were treated in triplicate for 72 h with increasing concentrations of DEB10-1143 (0 to 20 μM) used alone or in combination with ART (20 μM TDF, 10 μM FTC and 1 μM Raltegravir). ART and DEB10-1143 were added simultaneously to cells. Saponin (0.5%) was used as positive control due to its ability to induce cell death.
(§3) Cellular cytotoxicity was analyzed by Lactate dehydrogenase (LDH) assay and CellTiter Glo assay.
(§4) LDH assay: LDH is an oxidoreductase enzyme that catalyses the interconversion of pyruvate and lactate. Cells release LDH into the bloodstream after tissue damage or red blood cell hemolysis. […] In this particular assay, LDH reduces NAD to NADH, which is specifically detected by colorimetric (490 nm) assay.
(§5) CellTiter Glo assay: The CellTiter-Glo® 2.0 Assay determines the number of viable cells in culture by quantifying ATP, which indicates the presence of metabolically active cells. Luminescence readout is directly proportional to the number of viable cells in culture. Data are expressed in luminescence (RLU) in triplicate

[2] = test system: CD4+ T cell line JLat 10.6; experiment: as above; assay type: cell-based, human; details: even at high concentration (20 μM), 72 h
Procedure: as §1, §2, §3, §4, §5

BIRC2 = target: T1, BIRC2 (Homo sapiens, UniProt Q13490); experiment: BIRC2 (cIAP1) degradation by Western blotting; assay type: cell-based
T1 construct: endogenous in cells; host or cells: 2D10, 293T and CD4+ T cells
Procedure: It was investigated whether Debio-1143 reverses HIV-1 latency by acting on the NF-κB pathway. Canonical and non-canonical NF-κB signaling pathways play an important role in the reactivation of latent HIV-1, implicating its regulation as an important therapeutic strategy for latency reversal.
Method: 2D10 (A) or 293T (B) and CD4+ T cells (C) cells were treated with DMSO, Debio-1143 (1 μM) and TNFα (10 ng/ml) for the indicated times and analyzed by Western blotting for BIRC2 and IkBα protein expression using antibodies specifically detecting human BIRC2, human IkBα, or human CypA, such as commercially available (e.g. from R&D Systems, Cell Signaling, Santa Cruz Biotechnology, or other sources).

2D10 cells = experiment: Cytotoxicity by LDH assay in 2D10 cells; assay type: cell-based; details: 0 to 20 μM, 48 h
Procedure: Drug titration was conducted.
For analysis of cell viability, cells (100,000 cells/100 μL) were treated in triplicate for 48 h with increasing concentrations of Debio-1143 or other known LRAs (0 to 20 μM). Cellular cytotoxicity was analyzed by Lactate dehydrogenase (LDH) assay. LDH is an oxidoreductase enzyme that catalyzes the interconversion of pyruvate and lactate. Cells release LDH into the bloodstream after tissue damage or red blood cell hemolysis. Since LDH is a fairly stable enzyme, it has been widely used to evaluate the presence of damage and toxicity of tissue and cells. In this particular, LDH reduces NAD to NADH, which is specifically detected by colorimetric (490 nm) assay.

HIV-1 (JR-CSF) = experiment: Efficacy study in HIV-1 infected humanized BLT mice: viral RNA levels in organ reservoirs (qPCR); assay type: in vivo
Description: Methods: Humanized BLT mice were generated by implanting human fetal liver and thymus tissues under the kidney capsule of an immunodeficient NOD scid gamma (NSG=NOD.Cg-Prkdc^scidII12rg^tm1Wjl/SzJ) mouse, followed by an administration of autologous human fetal liver CD34+ cells (human hematopoietic stem cells). In BLT mice, T cell education occured in the human thymic tissue, resulting in complete systemic reconstitution of all major human hematopoietic lineages including T, B, monocyte/macrophage, dendritic, and natural killer cells. The extensive systemic and genital mucosal reconstitution with human lymphoid cells rendered female humanized BLT mice susceptible to both vaginal and rectal HIV infection.
Humanized BLT mice were generated by implanting 1-mm^3 pieces of human fetal liver and thymus tissues (Advanced Bioscience Resources) under the kidney capsule in 6 to 8-week-old female NSG mice (Jackson Laboratories) bred at The Scripps Research Institute (TSRI). Each cohort was produced with tissues from a single donor. CD34+ HSPC were purified from autologous fetal liver tissue, isolated by magnetic bead selection for CD34+ cells (Miltenyi), phenotyped cytometrically for engraftment success (CD34+, HLA DR-), and cryopreserved until injection (200,000 CD34+ cells) into mice 3 weeks after thymus/liver implantation. Human reconstitution was verified by flow cytometry (CD45+, CD3+, CD4+ and CD8+) in peripheral blood of the mice.
R5 HIV (JR-CSF) was produced by 293T transfection and quantified by p24 ELISA. Humanized mice were infected with JR-CSF (200 ng of p24) and viral replication quantified weekly by qPCR for up to 16 weeks.
Methods: Thirty-two BLT mice were infected with HIV-1. 12 weeks later mice were split in 4 groups (n=8), treated with various regimen and analyzed for 6 weeks. Group A received both vehicles for 4 weeks. Group B received Debio-1143 (100 mg/kg; QD1-5, p.o.) for 4 weeks (Debio-1143 was given 5 days a week for 4 weeks). Group C received the anti-PD-1 antibody (200 μg/dose, i.p., BIW) for 4 weeks. Group D received the combination of Debio-1143 (100 mg/kg; QD1-5, p.o.) together with the anti-PD-1 antibody (200 μg/dose i.p. BIW) for 4 weeks. Body weight, HIV-1 loads and PD-1 expression on CD8+ T cells were analyzed once weekly. After the 4 weeks of treatment, three mice per group were sacrificed for bioanalytical assessments. The remaining mice (4×5=20) were sacrificed 2 weeks after treatment completion and viral RNA levels in organ reservoirs (spleen, thymic organoid, lung, spleen, lymph nodes and liver) were quantified by qPCR.

T1 sequence (Q13490 whole entry): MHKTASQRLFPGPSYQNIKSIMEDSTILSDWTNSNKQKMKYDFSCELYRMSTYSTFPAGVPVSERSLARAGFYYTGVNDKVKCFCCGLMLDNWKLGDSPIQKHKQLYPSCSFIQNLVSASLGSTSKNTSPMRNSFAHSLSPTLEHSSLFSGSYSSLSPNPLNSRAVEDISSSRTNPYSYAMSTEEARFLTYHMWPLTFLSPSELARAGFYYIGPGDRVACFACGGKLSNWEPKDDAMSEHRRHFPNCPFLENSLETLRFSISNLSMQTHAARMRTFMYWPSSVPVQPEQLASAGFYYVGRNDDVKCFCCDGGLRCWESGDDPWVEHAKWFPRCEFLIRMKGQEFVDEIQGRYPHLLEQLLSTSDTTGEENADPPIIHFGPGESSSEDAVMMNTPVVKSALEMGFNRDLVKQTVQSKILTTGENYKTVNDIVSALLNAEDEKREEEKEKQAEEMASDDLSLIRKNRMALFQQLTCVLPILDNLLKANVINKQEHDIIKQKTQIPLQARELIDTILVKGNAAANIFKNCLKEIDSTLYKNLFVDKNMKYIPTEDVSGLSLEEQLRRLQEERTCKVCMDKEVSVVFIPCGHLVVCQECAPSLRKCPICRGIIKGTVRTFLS

CN[C@@H](C)C(=O)N[C@H]1CN(C(=O)CC(C)C)CC[C@H]2CC[C@@H](C(=O)NC(c3ccccc3)c3ccccc3)N2C1=O [Debio 1143, (5S,8S,10aR)-N-benzhydryl-5-((S)-2-(methylamino)propanamido)-3-(3-methylbutanoyl)-6-oxodecahydropyrrolo[1,2-a][1,5]diazocine-8-carboxamide]
cytotoxicity [1]: no significant cytotoxicity | cytotoxicity [2]: no significant cytotoxicity | time of BIRC2 degradation (BIRC2; 1 μM, 2D10 and 293T cells): < 15 min | BIRC2 degradation (BIRC2; CD4+ T cells): dose-dependent | cytotoxicity (LDH assay) (2D10 cells): did not exhibit any cytotoxicity | HIV load in organs (viral RNA levels in organ reservoirs) (HIV-1 (JR-CSF); 2 weeks after treatment completion, CD4+ cells of spleen, thymic organoid, lung, lymph nodes, liver): has no effect | Tissue HIV Load at Week 18, Liver (HIV-1 (JR-CSF); individual mice #1-5): 5.2 Log Viral RNA Copies/100,000 CD4+ Cells and 4.2 Log Viral RNA Copies/100,000 CD4+ Cells and 4.9 Log Viral RNA Copies/100,000 CD4+ Cells and 5.5 Log Viral RNA Copies/100,000 CD4+ Cells and 5.9 Log Viral RNA Copies/100,000 CD4+ Cells | Tissue HIV Load at Week 18, Lung (HIV-1 (JR-CSF); individual mice #1-5): 3.9 Log Viral RNA Copies/100,000 CD4+ Cells and 5.7 Log Viral RNA Copies/100,000 CD4+ Cells and 4.4 Log Viral RNA Copies/100,000 CD4+ Cells and 6.1 Log Viral RNA Copies/100,000 CD4+ Cells and 6.5 Log Viral RNA Copies/100,000 CD4+ Cells | Tissue HIV Load at Week 18, Lymph nodes (HIV-1 (JR-CSF); individual mice #1-5): 4.4 Log Viral RNA Copies/100,000 CD4+ Cells and 5 Log Viral RNA Copies/100,000 CD4+ Cells and 5.3 Log Viral RNA Copies/100,000 CD4+ Cells and 6.3 Log Viral RNA Copies/100,000 CD4+ Cells and 7.2 Log Viral RNA Copies/100,000 CD4+ Cells | Tissue HIV Load at Week 18, Spleen (HIV-1 (JR-CSF); individual mice #1-5): 4.4 Log Viral RNA Copies/100,000 CD4+ Cells and 6.4 Log Viral RNA Copies/100,000 CD4+ Cells and 5.2 Log Viral RNA Copies/100,000 CD4+ Cells and 5.5 Log Viral RNA Copies/100,000 CD4+ Cells and 6.7 Log Viral RNA Copies/100,000 CD4+ Cells | Tissue HIV Load at Week 18, Thymic organoid (HIV-1 (JR-CSF); individual mice #1-5): 4.6 Log Viral RNA Copies/100,000 CD4+ Cells and 5.3 Log Viral RNA Copies/100,000 CD4+ Cells and 3.9 Log Viral RNA Copies/100,000 CD4+ Cells and 5.7 Log Viral RNA Copies/100,000 CD4+ Cells and 6.2 Log Viral RNA Copies/100,000 CD4+ Cells | Tissue HIV Load at Week 18, Liver (HIV-1 (JR-CSF); mean of 5 mice): 5.14 Log Viral RNA Copies/100,000 CD4+ Cells | Tissue HIV Load at Week 18, Lung (HIV-1 (JR-CSF); mean of 5 mice): 5.32 Log Viral RNA Copies/100,000 CD4+ Cells | Tissue HIV Load at Week 18, Lymph nodes (HIV-1 (JR-CSF); mean of 5 mice): 5.64 Log Viral RNA Copies/100,000 CD4+ Cells | Tissue HIV Load at Week 18, Spleen (HIV-1 (JR-CSF); mean of 5 mice): 5.64 Log Viral RNA Copies/100,000 CD4+ Cells | Tissue HIV Load at Week 18, Thymic organoid (HIV-1 (JR-CSF); mean of 5 mice): 5.14 Log Viral RNA Copies/100,000 CD4+ Cells

From patent US20220016079A1, “COMBINATION TREATMENT OF HIV INFECTIONS” (priority 2018, published 2022)
